Results as given in patent US11365410B2, “Production and monitoring of metabolites in cells” (President and Fellows of Harvard College, priority 2015, dated 2022).

Columns and labels:
[1] = tested on: glucarate biosensor cdaR in BL21 cells; assay: Real-time glucarate monitoring from pathway intermediates with cdaR biosensor; format: cell-based, E. coli; conditions: strain with biosensor and biosynthesis pathway
Experimental: In representative examples, identical production conditions (genetics, media composition) were maintained but the exogenously supplemented precursor molecules were varied. […] The end-point fluorescence achieved by the addition of myo-inositol is just 20% that of glucuronate addition.
Glucarate production monitoring was carried out in BL21 cells doubly transformed with pJKR-H-cdaR and pJKR-GA-EXP. BL21 transformed with pJKR-H-cdaR alone was used as a control. Overnight cultures back-diluted 1:100 into Davis media supplemented with 5 g/L glucose. After four hours incubating at 200 RPM and 37° C., 150 μl of the log-phase cells were transferred to 96-well plates and exposed to 1 mM IPTG with the pathway intermediates described. […] End-point measurements were taken after eight hours. Glucarate production for titer measurement was carried out in BL21 transformed with pJKR-GA-EXP. An overnight culture was inoculated 1:100 into 1 mL of LB supplemented with 1 mM IPTG and the specified concentration of pathway intermediate. Production took place in 96-well blocks at 900 RPM and 37° C. for eight hours before supernatants were isolated and 0.2 μm filtered for LC/MS. All production runs were setup in triplicate. Error bars represent the 95% confidence interval derived from the standard error of the mean.

[2] = biological target: T1, AraC, regulator sequence SEQ ID NO: 10 (Escherichia coli, UniProt P0A9E0); assay: AraC biosensor induction (sfGFP reporter, Hill fit); format: cell-based, E. coli; conditions: arabinose
T1 construct: expressed in transfected cells; host or cells: E. coli DH5alpha transformed with pJKR-H (high copy) or pJKR-L (low copy) plasmid
Source text: (§1) Plasmids were constructed using Gibson isothermal assembly methods (see Gibson, D. G., Young, L., Chuang, R. Y., Venter, J. C., Hutchison, C. A., 3rd and Smith, H. O. (2009) Enzymatic assembly of DNA molecules up to several hundred kilobases. Nat Methods, 6, 343-345 incorporated herein by reference in its entirety) and transformed into DH5α electrocompetent cells (New England Biolabs, Ipswich Mass.). […] Each inducible system was implemented on high and low copy plasmids. High copy pJKR-H plasmids were constructed with the pUC origin and beta lactamase antibiotic resistance marker derived from pUC19 (New England Biolabs, Ipswich Mass.). Low copy pJKR-L plasmids were constructed in the same way, except that the pUC origin was replaced by the SC101 origin (including repA) from pSC101 obtained from American Type Culture Collection (ATCC #37032). […] In both these plasmids the antibiotic resistance gene and origin of replication were replaced with p15a-aadA and colA-kanR. Each enzyme was cloned downstream of the constitutive promoter P2 (see Mutalik, V. K., Guimaraes, J. C., Cambray, G., Lam, C., Christoffersen, M. J., Mai, Q. A., Tran, A. B., Paull, M., Keasling, J. D., Arkin, A. P. et al. (2013) Precise and reliable gene expression via standard transcription and translation initiation elements. Nat Methods, 10, 354-360 hereby incorporated by reference in its entirety) and g10 RBS to create pJKR-MIOX variants. These expression plasmids used the colA origin of replication and kanamycin resistance gene for maintenance. Sequences and plasmids are available on Addgene (plasmid numbers 62557-62570).
(§2) DH5α cells transformed with pJKR plasmids and maintained with carbenicillin were used in the induction assays. For each induction evaluation experiment, the cells were grown overnight to saturation before being diluted 1:100 into fresh LB media and incubated at 200 RPM and 37° C. […] Measurements were made on the same Biotek (Winooksi, Vt.) HT plate reader using the same settings: excitation 485/20, emission 528/20, 37° C. and fast shaking. Fluorescence and absorbance were measured every 10 minutes for 15 hours. Fluorescence was measured in arbitrary units (AFU) while optical density was determined by absorbance (OD). Normalized fluorescence was determined by dividing fluorescence by optical density for a given measurement. […]
(§3) The ratio of fluorescence to absorbance at 600 nm was used in order to compensate for changes in cell density over time and between experiments (AFU/OD). […] This transfer function is plotted on a log-log scale in FIG. 1A and FIG. 1B to capture the wide range of inducer concentrations and resulting fluorescence values. […]

[3] = biological target: T2, TtgR (Pseudomonas putida), regulator sequence SEQ ID NO: 14 (Pseudomonas putida, UniProt Q9AIU0); format: cell-based
T2 construct: expressed in transfected cells; host or cells: E. coli DH5alpha transformed with pJKR-H (high copy) or pJKR-L (low copy) plasmid
Experimental: (§4) DH5α cells transformed with pJKR plasmids and maintained with carbenicillin were used in the induction assays. For each induction evaluation experiment, the cells were grown overnight to saturation before being diluted 1:100 into fresh LB media and incubated at 200 RPM and 37° C. After four hours, 150 μl of the log-phase cells were transferred to 96-well plates and stock inducer was added to achieve the desired range of induction concentrations. Three separate wells were inoculated and independently supplemented with the appropriate amount of inducing chemical for each level of induction. Measurements were made on the same Biotek (Winooksi, Vt.) HT plate reader using the same settings: excitation 485/20, emission 528/20, 37° C. and fast shaking. Fluorescence and absorbance were measured every 10 minutes for 15 hours. Fluorescence was measured in arbitrary units (AFU) while optical density was determined by absorbance (OD). Normalized fluorescence was determined by dividing fluorescence by optical density for a given measurement. Five independent wells containing control strains, transformed with pUC19, were included to provide a measurement of background autofluorescence.

[4] = tested on: muconate biosensor benM in BL21 cells; assay: Real-time muconate monitoring from pathway intermediates with benM biosensor; format: cell-based, E. coli; conditions: strain with muconate biosynthesis pathway
Source text: A cell was genetically modified to include the muconate biosensor benM regulating production of a fluorescent molecule, and a LysR-type transcriptional regulator derived from Acinetobacter baylyi (see Craven, S. H., Ezezika, O. C., Haddad, S., Hall, R. A., Momany, C. and Neidle, E. L. (2009) Inducer responses of BenM, a LysR-type transcriptional regulator from Acinetobacter baylyi ADP1. Mol Microbiol, 72, 881-894 hereby incorporated by reference in its entirety). This setup is analogous to the previously described muconate artificial selection in which benM controls expression of an antibiotic resistance gene (see Raman, S., Rogers, J. K., Taylor, N. D. and Church, G. M. (2014) Evolution-guided optimization of biosynthetic pathways. Proceedings of the National Academy of Sciences of the United States of America, 111, 17803-17808 hereby incorporated by reference in its entirety. In order to achieve various muconate production rates for real-time observation, muconate was produced from a range of precursor molecules by implementing the biosynthetic pathway developed by Draths and Frost (see Niu, W., Draths, K. M. and Frost, J. W. (2002) Benzene-free synthesis of adipic acid. Biotechnology progress, 18, 201-211 and Draths, K. M. and Frost, J. W. (1994) Environmentally Compatible Synthesis of Adipic Acid from D-Glucose. […]
Muconate production monitoring was carried out in BL21 cells doubly transformed with pJKR-H-benM and the muconate production plasmid. […] After four hours, 150 μl of the log-phase cells were transferred to 96-well plates and monitored in the plate reader. After one hour, the specified concentration of pathway intermediate was added in triplicate and fluorescence monitoring was resumed. […] The quantity of muconate in the supernatant was determined by HPLC. […]

E. coli DH5α cells = assay: Toxicity of inducer chemicals (growth)
Experimental: Growth rate was measured for each combination of chemical and concentration during the exponential phase of growth. Rates were normalized to the growth rate of cells without any added chemical and plotted as bar height. Concentration of each inducer is indicated in the table, corresponding to the bar chart by order and color. […] Inducer concentrations mirror the concentrations used in the induction experiments.
150 μl of cells were transferred into 96-well plates and the assayed chemical was immediately added in triplicate before further incubation at 600 RPM and 37° C.
Toxicity of the inducer chemicals was measured to help guide the choice of inducer concentration for biosensor applications. In applications where maximum protein production is the goal, toxicity will be less of a consideration. In contrast, sub-toxic induction is important for complex circuits that require the cell to maintain a healthy cell state.

[5] = biological target: MphR (E. coli), regulator sequence SEQ ID NO: 12 (Escherichia coli, UniProt Q9EVJ6); assay: MphR biosensor induction (sfGFP reporter, Hill fit); format: cell-based; conditions: erythromycin
Source text: as §1, §2, §3

[6] = biological target: T2, TtgR (Pseudomonas putida), regulator sequence SEQ ID NO: 14; assay: TtgR biosensor induction (sfGFP reporter, Hill fit); format: cell-based; conditions: naringenin
Source text: as §1, §2, §3

TtgR biosensor = TtgR biosensor induction with phenol and related compounds; format: cell-based, E. coli; conditions: 0.1% phenol, 0.1% catechol, up to 0.4% benzene; fluorescence after 90 minutes
Experimental: All experiments were carried out in triplicate.
as §4

[7] = tested on: inducible promoter driving sfGFP in DH5α cells; assay: Hill-function fit of maximum GFP expression rate to inducer concentration; format: cell-based, E. coli
Experimental: The GFP expression rate was calculated at each time-point with the formula ΔGFP/OD. Scipy was used to perform a non-linear least-squares fit of the maximum GFP expression rate to the corresponding inducer concentration using the Hill function
Vmax is the maximum rate of GFP expression, Vmin is basal rate of GFP expression, I is the concentration of inducer, h is the hill coefficient and KL is the lumped half-maximal parameter described in Results. The variance of each parameter was determined from the least-squares covariance matrix.
A model of gene activation is applied as described herein to relate promoter activity to inducer concentration. Promoter activity is defined as the time derivative of fluorescence corrected for cell growth. […] Gene expression rates were fit to a Hill function adapted to account for both the maximum velocity of gene expression and the basal expression of the uninduced cells.

Compound: O=C(O)[C@H]1OC(O)[C@H](O)[C@@H](O)[C@@H]1O (mixture of isomers) [glucuronate]
- end-point fluorescence relative to that of glucarate ([1]; eight hours): 80%

Compound: OC1OC[C@H](O)[C@H](O)[C@H]1O (stereo partly drawn) [Arabinose, arabinose]
- Hill Coefficient ([2]; high copy): 1.3 ± 0.1
- Max Expression Velocity ([2]; high copy): 3150 ± 60 s⁻¹
- Hill Coefficient ([2]; low copy): 1.3 ± 0.2
- Max Expression Velocity ([2]; low copy): 1260 ± 50 s⁻¹

Compound: CC(C)c1ccc(C(=O)O)cc1 [Cumate, cumate]
- Activation of TtgR by cumate ([3]; cross-reactivity panel, 20 μM): not activated

Compound: O=C(O)C1=CC(=O)[C@@H](O)[C@H](O)C1 [DHS, 3-dehydroshikimate]
- fluorescence response of muconate biosensor [4]: rapid fluorescence response

Compound: CC[C@H]1OC(=O)[C@H](C)[C@@H](O[C@H]2C[C@@](C)(OC)[C@@H](O)[C@H](C)O2)[C@H](C)[C@@H](O[C@@H]2O[C@H](C)C[C@H](N(C)C)[C@H]2O)[C@](C)(O)C[C@@H](C)C(=O)[C@H](C)[C@@H](O)[C@]1(C)O [Erythromycin, erythromycin]
- Toxicity in induction experiment (E. coli DH5α cells; 1400 μM and 450 μM erythromycin, low-copy MphR): high toxicity
- Toxicity (E. coli DH5α cells; with eryR, erythromycin up to 1.4 mM): only slight toxicity
- Hill Coefficient ([5]; high copy): 1.6 ± 0
- Max Expression Velocity ([5]; high copy): 2070 ± 20 s⁻¹
- Hill Coefficient ([5]; low copy): 1.6 ± 0.1
- Max Expression Velocity ([5]; low copy): 66 ± 1 s⁻¹

Compound: O=C1C[C@@H](c2ccc(O)cc2)Oc2cc(O)cc(O)c21 [Naringenin, naringenin]
- Hill Coefficient ([6]; high copy): 3.8 ± 0.6
- Max Expression Velocity ([6]; high copy): 180 ± 6 s⁻¹
- Hill Coefficient ([6]; low copy): 2.3 ± 0.4
- Max Expression Velocity ([6]; low copy): 25 ± 1 s⁻¹

Compound: Oc1ccccc1 [Phenol, phenol]
- Activation of TtgR sensor ([3]; 0.1%, 90 min): only phenol activated the sensor

Compound: c1ccccc1 [benzene]
- fluorescent response of TtgR biosensor (TtgR biosensor): background levels of fluorescence

Compound: Oc1ccccc1O [catechol]
- fluorescence response of muconate biosensor [4]: rapid fluorescence response
- fluorescent response of TtgR biosensor (TtgR biosensor): did not activate the sensor

Compound: O[C@H]1[C@H](O)[C@@H](O)[C@H](O)[C@@H](O)[C@H]1O [myo-inositol]
- lag of fluorescence response behind glucuronate [1]: 60 min
- end-point fluorescence relative to that of glucuronate addition ([1]; eight hours): 20%

Compound: Oc1ccccc1 [phenol]
- fluorescent response of TtgR biosensor (TtgR biosensor): activated the sensor

Compound: O=C(O)c1ccc(O)c(O)c1 [protocatechuate]
- fluorescence response of muconate biosensor [4]: rapid fluorescence response

Compound: AraC
- Basal Expression Velocity ([7]; High copy number plasmid): 20 ± 50 s⁻¹
- Basal Expression Velocity ([7]; Low copy number plasmid): 40 ± 30 s⁻¹
